This is an account of results in patent US20250120961A1, “P53 MODULATORS” (Nested Therapeutics, Inc., priority 2023, published 2025).

For the assay, the target named is His-tagged p53-Y220C DNA binding domain (Homo sapiens, UniProt P04637, Y220C). In words: Biochemical p53-Y220C and DNA binding assay (HTRF). The settings on record: inflection point of 10 points dose titration, 4 parameter curve fit; p53-Y220C DBD 100 nM, biotinylated dsDNA 200 nM, 27 to 29° C.; read-out: HTRF IP. The text has this:
Biological Example 1. Biochemical p53-Y220C and DNA Binding Assay
The compounds of this invention can bind to p53-Y220C and increase the ability of the mutant p53 to bind to DNA at higher temperatures. His-tagged p53-Y220C DNA binding domain containing amino acid 94-312 is used to measure DNA binding activities in vitro with the sequence described below. (SEQ ID NO: 1: […]. Biotin labeled double strand DNA (dsDNA) containing consensus p53 binding sequence (SEQ ID NO: 2: Forward: 5′-(biotin)-[…]-3′; Reverse: 5′-(biotin)-[…]-3′) is used to measure protein-DNA binding activities. Compounds, His-tagged p53-Y220C DBD proteins (100 nM), and biotinylated dsDNA (200 nM) were mixed in ice-cold assay buffer containing DPBS, 20 mM NaCl, and 0.5% BAS, and incubated at 4° C. overnight in 384-well plate. Plates were transferred to incubator at 27 to 29° C. with constant shaking for 60 minutes. Equal volume of Homogeneous Time-Resolved Fluorescence (HTRF) dyes containing mAb anti-6HIS Tb cryptate gold and d2 labeled streptavidin in the assay buffer was added to each well and incubated at 27 to 29° C. with constant shaking for 60 minutes. The plate was read using Envision multimode plate reader. Reference compound 1 was used as high control and DMSO was used as low control. The percentage activation (A %) of protein-DNA binding by compounds was normalized by setting up high control (reference compound) as […] and low control (DMSO) as 0% (A %=(HTRF ratio of compound-HTRF ratio of low control)/(HTRF ratio of high control-HTRF ratio of low control)*500). 10 points dose titration curves for each compound were analyzed by 4 parameter curve fit and inflection point (IP) was reported. Reference compound 1 is shown below Table 1. Compounds of the invention are active in the HTRF assay. Data in Table 1 collected using Biological Example 1.
As to `F[C@H]1CNCC[C@H]1Nc1cccc2c(CC(F)(F)F)c(/C=N\OCC3CC3)sc12` [Example 2-11, (Z)-7-(((3S,4R)-3-fluoropiperidin-4-yl)amino)-3-(2,2,2-trifluoroethyl)benzo[b]thiophene-2-carbaldehyde O-cyclopropylmethyl oxime], the EC50 fell in the range of 100 to 1000 nM.

Turning to `OCC(Cn1cccn1)O/N=C/c1sc2c(N[C@@H]3CNC[C@@H]3F)cccc2c1CC(F)(F)F` (stereo partly drawn) [Example 1-28, (E)-7-(((3R,4S)-4-fluoropyrrolidin-3-yl)amino)-3-(2,2,2-trifluoroethyl)benzo[b]thiophene-2-carbaldehyde O-(1-hydroxy-3-(1H-pyrazol-1-yl)propan-2-yl) oxime], the EC50 is > 1000 nM. In the case of `COC(=O)NC/C=C/c1sc2c(N[C@@H]3CCN(C)C[C@@H]3F)cccc2c1CC(F)(F)F` [Example 6-4, methyl ((E)-3-(7-(((3S,4R)-3-fluoro-1-methylpiperidin-4 yl)amino)-3-(2,2,2-trifluoroethyl)benzo[b]thiophen-2-yl)allyl)carbamate] it was 100 to 1000 nM; in that of `OCC1(O/N=C/c2sc3c(N[C@@H]4CNC[C@@H]4F)cccc3c2CC(F)(F)F)CCNC1` (stereo partly drawn) [Example 1-13, (E)-7-(((3R,4S)-4-fluoropyrrolidin-3-yl)amino)-3-(2,2,2-trifluoroethyl)benzo[b]thiophene-2-carbaldehyde O-(3-(hydroxymethyl)pyrrolidin-3-yl) oxime], > 1000 nM. Under `CS(=O)(=O)NC1CCC(=Cc2sc3c(N[C@@H]4CCNC[C@@H]4F)cccc3c2CC(F)(F)F)CC1` (stereo partly drawn) [Example 4-1, N-(4-((7-(((3S,4R)-3-fluoropiperidin-4-yl)amino)-3-(2,2,2-trifluoroethyl)benzo[b]thiophen-2-yl)methylene)cyclohexyl)methanesulfonamide] stands > 1000 nM. In the case of `O=C1NC(CO/N=C/c2sc3c(N[C@@H]4CNC[C@@H]4F)cccc3c2CC(F)(F)F)CO1` (stereo partly drawn) [Example 2-19, (E)-7-(((3R,4S)-4-fluoropyrrolidin-3-yl)amino)-3-(2,2,2-trifluoroethyl)benzo[b]thiophene-2-carbaldehyde O-((2-oxooxazolidin-4-yl)methyl) oxime] it was 100 to 1000 nM; in that of `OC1CCCCC1O/N=C/c1sc2c(N[C@@H]3CNC[C@@H]3F)cccc2c1CC(F)(F)F` (stereo partly drawn) [Example 1-35, (E)-7-(((3R,4S)-4-fluoropyrrolidin-3-yl)amino)-3-(2,2,2-trifluoroethyl)benzo[b]thiophene-2-carbaldehyde O-(2-hydroxycyclohexyl) oxime], 100 to 1000 nM. Take `F[C@H]1CNCC[C@H]1Nc1cccc2c(CC(F)(F)F)c(/C=N/OCC3CC3)sc12` [Example 2-10, (E)-7-(((3S,4R)-3-fluoropiperidin-4-yl)amino)-3-(2,2,2-trifluoroethyl)benzo[b]thiophene-2-carbaldehyde O-cyclopropylmethyl oxime]: the EC50 is 100 to 1000 nM.

Take `COc1cc(S(C)(=O)=O)ccc1NC/C=C/c1sc2c(N[C@@H]3CCN(C)C[C@@H]3F)cccc2c1CC(F)(F)F` [Example 7-2, (3S,4R)-3-fluoro-N-(2-((E)-3-((2-methoxy-4-(methylsulfonyl)phenyl)amino)prop-1-en-1-yl)-3-(2,2,2-trifluoroethyl)benzo[b]thiophen-7-yl)-1-methylpiperidin-4-amine]: the EC50 was < 100 nM. Regarding `CN1C[C@H](F)[C@H](Nc2cccc3c(CC(F)(F)F)c(/C=N/OCC(C)(C)O)sc23)C1` [Example 2-21, (E)-7-(((3R,4S)-4-fluoro-1-methylpyrrolidin-3-yl)amino)-3-(2,2,2-trifluoroethyl)benzo[b]thiophene-2-carbaldehyde O-(2-hydroxy-2-methylpropyl) oxime], the EC50 was in the range of 100 to 1000 nM.

As for `OC(/C=C/c1sc2c(N[C@@H]3CNC[C@@H]3F)cccc2c1CC(F)(F)F)c1cc(Cl)n[nH]1` (stereo partly drawn) [Example 5-3, (E)-1-(3-chloro-1H-pyrazol-5-yl)-3-(7-(((3R,4S)-4-fluoropyrrolidin-3-yl)amino)-3-(2,2,2-trifluoroethyl)benzo[b]thiophen-2-yl)prop-2-en-1-ol], the EC50 fell in the range of 100 to 1000 nM. Regarding `O=C1CCC(CO/N=C/c2sc3c(N[C@@H]4CNC[C@@H]4F)cccc3c2CC(F)(F)F)N1` (stereo partly drawn) [Example 2-18, (E)-7-(((3R,4S)-4-fluoropyrrolidin-3-yl)amino)-3-(2,2,2-trifluoroethyl)benzo[b]thiophene-2-carbaldehyde O-((5-oxopyrrolidin-2-yl)methyl) oxime], the EC50 was in the range of 100 to 1000 nM. In the case of `OC1COCC1O/N=C/c1sc2c(N[C@@H]3CNC[C@@H]3F)cccc2c1CC(F)(F)F` (stereo partly drawn) [Example 1-37, (E)-7-(((3R,4S)-4-fluoropyrrolidin-3-yl)amino)-3-(2,2,2-trifluoroethyl)benzo[b]thiophene-2-carbaldehyde O-(4-hydroxytetrahydrofuran-3-yl) oxime] it was < 100 nM. Under `OC1(CO/N=C/c2sc3c(N[C@@H]4CNC[C@@H]4F)cccc3c2CC(F)(F)F)CCCNC1` (stereo partly drawn) [Example 1-32, (E)-7-(((3R,4S)-4-fluoropyrrolidin-3-yl)amino)-3-(2,2,2-trifluoroethyl)benzo[b]thiophene-2-carbaldehyde O-((3-hydroxypiperidin-3-yl)methyl) oxime] stands > 1000 nM; under `O=c1cccc(CO/N=C/c2sc3c(N[C@@H]4CNC[C@@H]4F)cccc3c2CC(F)(F)F)[nH]1` [Example 2-26, (E)-7-(((3R,4S)-4-fluoropyrrolidin-3-yl)amino)-3-(2,2,2-trifluoroethyl)benzo[b]thiophene-2-carbaldehyde O-((6-oxo-1,6-dihydropyridin-2-yl)methyl) oxime], < 100 nM; under `CO/N=C/c1cc2c(N[C@@H]3CCN(C)C[C@@H]3F)cccc2n1CC(F)(F)F` [Example 2-2, (E)-4-(((3S,4R)-3-fluoro-1-methylpiperidin-4-yl)amino)-1-(2,2,2-trifluoroethyl)-1H-indole-2-carbaldehyde O-methyl oxime], > 1000 nM. Regarding `CNC(=O)c1ccc(CO/N=C/c2sc3c(N[C@@H]4CCN(C)C[C@@H]4F)cccc3c2SC(F)(F)F)c(NC)c1` [Example 2-33, 4-(((((E)-(7-(((3S,4R)-3-fluoro-1-methylpiperidin-4-yl)amino)-3-((trifluoromethyl)thio)benzo[b]thiophen-2-yl)methylene)amino)oxy)methyl)-N-methyl-3-(methylamino)benzamide], the EC50 was < 100 nM.

`Cc1nnc(CO/N=C/c2sc3c(N[C@@H]4CNC[C@@H]4F)cccc3c2CC(F)(F)F)o1` [Example 3-6, (E)-7-(((3R,4S)-4-fluoropyrrolidin-3-yl)amino)-3-(2,2,2-trifluoroethyl)benzo[b]thiophene-2-carbaldehyde O-((5-methyl-1,3,4-oxadiazol-2-yl)methyl) oxime]: the EC50 was 100 to 1000 nM. Consider `OC(CO/N=C/c1sc2c(N[C@@H]3CNC[C@@H]3F)cccc2c1CC(F)(F)F)Cn1cccn1` (stereo partly drawn) [Example 1-27, (E)-7-(((3R,4S)-4-fluoropyrrolidin-3-yl)amino)-3-(2,2,2-trifluoroethyl)benzo[b]thiophene-2-carbaldehyde O-(2-hydroxy-3-(1H-pyrazol-1-yl)propyl) oxime], for which the EC50 lay within 100 to 1000 nM. Under `CN1CC[C@@H](Nc2cccc3c(CC(F)(F)F)c(/C=C/C(O)c4cnn(C)c4)sc23)[C@@H](F)C1` (stereo partly drawn) [Example 5-5] stands 100 to 1000 nM. In the case of `OC1(CO/N=C/c2sc3c(N[C@@H]4CNC[C@@H]4F)cccc3c2CC(F)(F)F)CCOC1` (stereo partly drawn) [Example 1-40, (E)-7-(((3R,4S)-4-fluoropyrrolidin-3-yl)amino)-3-(2,2,2-trifluoroethyl)benzo[b]thiophene-2-carbaldehyde O-((3-hydroxytetrahydrofuran-3-yl)methyl) oxime], the EC50 lay within 100 to 1000 nM. Under `OC1CNCC1O/N=C/c1sc2c(N[C@@H]3CNC[C@@H]3F)cccc2c1CC(F)(F)F` (stereo partly drawn) [Example 1-36, (E)-7-(((3R,4S)-4-fluoropyrrolidin-3-yl)amino)-3-(2,2,2-trifluoroethyl)benzo[b]thiophene-2-carbaldehyde O-(4-hydroxypyrrolidin-3-yl) oxime] stands 100 to 1000 nM.

For `CN1CC[C@@H](Nc2cccc3c(CC(F)(F)F)c(/C=C/C(O)c4cccnc4)sc23)[C@@H](F)C1` (stereo partly drawn) [Example 5-4, (E)-3-(7-(((3S,4R)-3-fluoro-1-methylpiperidin-4-yl)amino)-3-(2,2,2-trifluoroethyl)benzo[b]thiophen-2-yl)-1-(pyridin-3-yl)prop-2-en-1-ol], the EC50 fell in the range of 100 to 1000 nM. `CC(C)(C)O/N=C/c1sc2c(N[C@@H]3CNC[C@@H]3F)cccc2c1CC(F)(F)F` [Example 2-16, (E)-7-(((3R,4S)-4-fluoropyrrolidin-3-yl)amino)-3-(2,2,2-trifluoroethyl)benzo[b]thiophene-2-carbaldehyde O-(tert-butyl) oxime]: the EC50 is > 1000 nM.
